According to patent publication US20250059231A1, “Protease inhibitors” (priority 2021, published 2025):
pEC50: −log10 of the molar value. “Also recorded” adds a separate entry of the source. Where a SMILES comes first, the peptide text is derived from it. The star is where a group is joined. Palmitoyl = CCCCCCCCCCCCCCCC(=O)*

Assays:
[1] = Cytotoxicity (method not described); assay type: cell-based
TNF alpha = assay: DENV2 infection in AG129 mice: plasma TNF alpha (ELISA); assay type: in vivo; settings: 10 mg/kg I.P, b.i.d; n = 9; vs vehicle control
Experimental: (§1) Administration of compounds and vehicle to animals started twenty four hours before infection (Day −1). Animals were treated daily (From Day-1 to day 4) as per the experimental design shown below in table 3.1.5. Animals were monitored for general clinical signs, morbidity and mortality. Body weights were measured daily.
(§2) Cytokine levels (TNF alpha, IL-6 and IL-12) in plasma samples were measured using Enzyme-Linked Immunosorbent Assay (ELISA). Mouse TNF alpha ELISA Kit (Abcam: ab208348), Mouse IL-6 ELISA Kit (Abcam: ab100712), and Mouse IL-12 p40+IL-12 p70 ELISA Kit (Abcam: ab100699) were used to estimate TNF alpha, IL-6 and IL-12, respectively. The assays were performed according to the manufacturer's instructions and was analysed on a TECAN-NanoQuant Plate™ system.
(§3) The Mean±SD Log10PFU/ml, relative Mean±SD spleen weight, Mean±SD biomarker concentrations were estimated in each group. Significant differences between group means and control were analyzed by one-way ANOVA, followed by a Dunnett's multiple comparison test, using GraphPad Prism 5 at 95% confidence levels. A p value of <0.05 was considered as significant.

IL-12 = assay: DENV2 infection in AG129 mice: plasma IL-12 (ELISA); assay type: in vivo; settings: 10 mg/kg I.P, b.i.d; n = 9; vs vehicle control
Experimental: as §1, §2, §3

[2] = Tissue distribution (biodistribution) in rats; assay type: in vivo; settings: FIG. 5C after intravenous injection
Source text: FIG. 5C-tissue distribution after intravenous injection in rats, measured by ratio concentration tissue over plasma.
Following administration, molecules reach the systemic circulation via either the blood capillaries or the lymphatic system.

dengue virus = assay: In vivo assay using subcutaneous vs intraperitoneal administration, plaque assay in mouse plasma; parameters: species or system mice; settings: for therapeutic efficacy by plaque assays in mouse plasma through the treatment period / plaque assay in mouse plasma: 20 mg/kg (5h post infection); for efficacy against dengue virus infection after subcutaneous administration: subcutaneous vs other routes of administration, mice
Experimental: FIG. 5B-viral load (plaque assay) in plasma of mice following treatment with vehicle or with compound 113 (20 mg/kg, b.i.d. IP and SC starting at 5h post-infection). Error bars are Mean±SEM.
(§4) BHK-21 cells were cultured to approximately 80% confluency in 24-well plates (NUNC, NY, USA). Plasma samples were 10-fold serially diluted in RPMI 1640 (GIBCO). BHK-21 monolayers were infected with 100 μl of each virus dilution. After incubation at 37° C. and 5% CO2 atmosphere for one hour with rocking at 15 min intervals, the medium was decanted and 1 ml of 1% (w/v)carboxymethyl cellulose in RPMI supplemented with 2% FCS was added to each well. After four days incubation at 37° C. in 5% CO2, the cells were fixed with 4% paraformaldehyde and stained for 30 min with […] of 1% crystal violet dissolved in 37% formaldehyde. After thorough rinsing with water, plates were dried and the plaques were scored visually.
These studies were largely performed as in Example 17, with a difference found in the administration of compounds of the invention. […] In this example the compounds of the invention are administered using subcutaneous administration, and compound 113 was used as exemplary for compounds according to the invention.
Results are shown in the table below, where compounds were used at 20 mg/kg (5h post infection). Antiviral activity is much improved after subcutaneous administration, with a longer lasting effect.

[3] = test system: Dengue virus 2 (DENV2, ATCC VR-1584); assay: DENV2 infection in AG129 mice: viral load in plasma (plaque assay); assay type: in vivo; settings: b.i.d
Experimental: The purpose of this study was to determine the efficacy of the compounds on Dengue virus 2 (DENV2, ATCC® VR-1584™) infection in AG129 mice.
Six groups of AG129 mice, 6-8 weeks old, with 9 mice per group were used to test compounds according to table 3.1.1. Animal room environment was monitored for temperature and relative humidity twice per day. The temperature range was 22° C.±3° C. and humidity range was 30-70%. The animals were provided with 12 hours light and 12 hours darkness. Feed and drinking water was provided ad libitum. Compounds 43 and 113 were tested.
Twenty-four hours post treatment (Day 0), animals were injected intraperitoneally (IP) with 0.2 ml of virus suspension (˜5×10^7/animal).
as §1
Blood was collected on days-1, 0, 1, 2, 3, 4 to 5.
as §4, §3

WNV protease = target: T1, WNV protease (West Nile virus, UniProt P06935); assay: WNV protease assay (analogous procedure); assay type: biochemical; settings: at 50 μM
T1 construct: a trypsin-like serine protease domain in the N-terminal region of the flaviviral NS3 proteins
Outline: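 Adapted from the DENV protease assay: inhibitors preincubated 15 min with protease (DENV at 100 nM) in 50 mM Tris-HCl pH 9.0, 10% ethylene glycol, 0.0016% Brij 58, then FRET substrate (50 μM final) added.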

human Trypsin = human Trypsin (Homo sapiens, UniProt P07477); assay: Selectivity screening, human serine protease trypsin; assay type: biochemical; settings: read-out: inhibition of human Trypsin
Outline: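 Active candidates were counter-screened for selectivity against the human serine protease trypsin in a biochemical assay similar to the flavivirus protease assay. Cleavage of a substrate by protease activity raises fluorescence, which is read on a microtiter fluorescence plate reader. Compounds are diluted from 10 mM DMSO stocks and tested in triplicate, and inhibition of trypsin is reported.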

human Thrombin = human Thrombin (Homo sapiens, UniProt P00734); assay: Selectivity screening, human serine protease thrombin; assay type: biochemical; settings: at 5 μM; read-out: inhibition of human Thrombin

T1 sequence (P06935 1424-1463): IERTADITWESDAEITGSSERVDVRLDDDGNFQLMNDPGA
T1 sequence (P06935 1502-1679): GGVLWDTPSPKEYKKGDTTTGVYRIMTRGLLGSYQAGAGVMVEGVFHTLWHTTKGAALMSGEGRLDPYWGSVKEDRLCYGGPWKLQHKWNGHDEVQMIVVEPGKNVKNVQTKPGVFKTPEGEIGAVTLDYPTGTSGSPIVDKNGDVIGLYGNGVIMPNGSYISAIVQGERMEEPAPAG

Compound	Plasma concentration of TNF-alpha in mouse plasma after treatment (TNF alpha)	therapeutic efficacy by plaque assays in mouse plasma through the treatment period (dengue virus)	plaque assay in mouse plasma (dengue virus; Day 3, IP)	plaque assay in mouse plasma (dengue virus; Day 3, SC)	plaque assay in mouse plasma (dengue virus; Day 4, IP)	plaque assay in mouse plasma (dengue virus; Day 4, SC)	efficacy against dengue virus infection after subcutaneous administration (dengue virus)	Mean + SD Log10PFU/ml Plasma ([3]; Day 2, 10 mg/kg I.P) [Log10PFU/ml]	Mean + SD Log10PFU/ml Plasma ([3]; Day 2, 20 mg/kg I.P) [Log10PFU/ml]	Mean + SD Log10PFU/ml Plasma ([3]; Day 5, 10 mg/kg I.P) [Log10PFU/ml]	Mean + SD Log10PFU/ml Plasma ([3]; Day 5, 20 mg/kg I.P) [Log10PFU/ml]	pEC50 (West Nile virus)	also measured
CCCCCCCCCCCCCCCC(=O)N[C@@H](CCCCN)CC(=O)N[C@@H](C)C(=O)N[C@@H](C)CC(=O)N[C@H](CCCCN)C(N)=O (stereo in doubt) [compound 113]	25.99 ± 9.19	good therapeutic efficacy	4.70 ± 0.75	3.58 ± 0.34	4.23 ± 0.52	3.26 ± 0.49	great efficacy; also recorded: improved efficacy	3.79 ± 0.10	3.07 ± 0.28	3.66 ± 0.11	3.77 ± 0.11	≥ 4.60	cytotoxicity [1]: minimal cytotoxicity; Plasma concentration of IL-12 in mouse plasma after treatment (IL-12): 81.79 ± 14.30; tissue distribution, concentration in tissue (liver and spleen) versus plasma [2]: could reach the main target sites of dengue; Mean + SD Log10PFU/ml Plasma ([3]; Day 4, 10 mg/kg I.P): 4.65 ± 0.08 Log10PFU/ml; pEC50 (ZIKV): ≥ 5.00
CCCCCCCCCCCCCCCC(=O)N[C@@H](CCCNC(=N)N)C(=O)N[C@@H](CCC(N)=O)C(=O)N[C@@H](Cc1ccccc1)C(N)=O [compound 43] (Palmitoyl-Arg-Gln-Phe-NH2)	32.45 ± 12.30	good therapeutic efficacy	4.32 ± 0.45	3.43 ± 0.304	4.38 ± 0.41	3.34 ± 0.40	great efficacy	3.36 ± 0.41	3.48 ± 0.25	3.28 ± 0.21	3.06 ± 0.31	≥ 4.60	inhibition at 50 µM (WNV protease): ≥ 25%; inhibition at 5 µM (human Trypsin; at 5 μM): < 10%; inhibition at 25 µM (human Trypsin; at 25 μM): < 20%; inhibition at 5 µM (human Thrombin): < 5%
